Patent US20260041704A1, “COMPOSITIONS AND METHODS FOR TREATING SICKLE CELL DISEASE” (Beren Therapeutics P.B.C., priority 2022, published 2026)

Experiments:
Format in all cases: cell-based, human
[1] = system: RBCs from healthy individuals (AA); test: Free hemoglobin assay (Drabkin's reagent) in supernatants, RBCs from healthy individuals; conditions: 5 mM 2-HPBCD, 1 h incubation, RBCs from healthy control individuals (AA) in PBS, FIG. 4
[2] = system: RBCs from healthy individuals (AA); test: Red blood cell deformability by ektacytometry (LORRCA), RBCs from healthy individuals; conditions: 5 mM 2-HPBCD, 1 h at 37° C, RBCs from healthy controls (AA) in PBS
Text: Subjects and blood preparation: 17 sickle cell patients (24.1 +/-12.1 years old) and 6 healthy individuals (26 +/−3.9 years old) were included in this study. 12 sickle cell patients were at steady state at the time of inclusion and 5 had vaso-occlusive crisis the day of inclusion. 14 patients were under hydroxyurea therapy. Blood was drawn into EDTA tubes, centrifuged, and plasma and buffy coat were removed and kept until utilization. RBCs were washed in PBS 1X (Phosphate Buffered Saline, 1X Solution) and resuspended at hematocrit 20% either in PBS 1X or in autologous plasma. Then RBCs were incubated for 1 h at 37° C, with 3 or 5 mM 2-HPBCD or vehicle for control condition (Ctrl). […]
Red blood cell deformability: RBC deformability was assessed at 37° C, at shear stresses ranging from 0.3 to 30 Pa by laser diffraction analysis (ektacytometry), using a Laser-assisted Optical Rotational Cell Analyzer (LORRCA MaxSis, RR Mechatronics. Hoorn. The Netherlands). […] The shear stress-induced deformation of RBCs affected the laser beam's diffraction pattern, which was measured by the LORRCA software, and used to calculate an elongation index. […]
Statistical analysis: effects of treatments on deformability parameters (EImax and SS1/2) and free hemoglobin concentration were analyzed by using a paired t-test or Wilcoxon test when appropriate. […]

[3] = system: RBCs from sickle cell disease patients (SS); test: Free hemoglobin assay (Drabkin's reagent) in supernatants, RBCs from sickle cell patients; conditions: 1 h incubation
[4] = system: RBCs from sickle cell disease patients (SS); test: Red blood cell deformability by ektacytometry (LORRCA), RBCs from sickle cell patients
Text: Subjects and blood preparation: 17 sickle cell patients (24.1 +/-12.1 years old) and 6 healthy individuals (26 +/−3.9 years old) were included in this study. 12 sickle cell patients were at steady state at the time of inclusion and 5 had vaso-occlusive crisis the day of inclusion. 14 patients were under hydroxyurea therapy. Blood was drawn into EDTA tubes, centrifuged, and plasma and buffy coat were removed and kept until utilization. RBCs were washed in PBS 1X (Phosphate Buffered Saline, 1X Solution) and resuspended at hematocrit 20% either in PBS 1X or in autologous plasma. Then RBCs were incubated for 1 h at 37° C, with 3 or 5 mM 2-HPBCD or vehicle for control condition (Ctrl). The vehicle for control condition was the PBS IX or plasma respectively, i.e., without addition of the 2-HPBCD.
Red blood cell deformability: RBC deformability was assessed at 37° C, at shear stresses ranging from 0.3 to 30 Pa by laser diffraction analysis (ektacytometry), using a Laser-assisted Optical Rotational Cell Analyzer (LORRCA MaxSis, RR Mechatronics. Hoorn. The Netherlands). 10 μL of RBC suspensions were mixed with 1 ml polyvinylpyrrolidone (PVP: viscosit≈30 cP) and sheared into a Couette system. A laser beam was directed through the samples. The shear stress-induced deformation of RBCs affected the laser beam's diffraction pattern, which was measured by the LORRCA software, and used to calculate an elongation index. A higher elongation index represents greater RBC deformability. The Lineweaver-Burke method was used to calculate the maximum elongation index at infinite shear stress (EImax) and the shear stress required to reach half of this maximum elongation index (SS1/2).
Statistical analysis: effects of treatments on deformability parameters (EImax and SS1/2) and free hemoglobin concentration were analyzed by using a paired t-test or Wilcoxon test when appropriate. Comparisons of RBC deformability between healthy individuals and patients were achieved using Student's t-test. A p value<0.05 was considered as significant. Analyses were performed with Graphpad Prism 9 software.

Structure (SMILES): CC(O)COC[C@H]1O[C@@H]2O[C@H]3[C@H](O)[C@@H](O)[C@@H](O[C@H]4[C@H](O)[C@@H](O)[C@@H](O[C@H]5[C@H](O)[C@@H](O)[C@@H](O[C@H]6[C@H](O)[C@@H](O)[C@@H](O[C@H]7[C@H](O)[C@@H](O)[C@@H](O[C@H]8[C@H](O)[C@@H](O)[C@@H](O[C@H]1[C@H](O)[C@H]2O)O[C@@H]8COCC(C)O)O[C@@H]7COCC(C)O)O[C@@H]6COCC(C)O)O[C@@H]5COCC(C)O)O[C@@H]4COCC(C)O)O[C@@H]3COCC(C)O (stereo partly drawn) [2-HPBCD, 2-hydroxypropyl-β-cyclodextrin]
- effect on free hemoglobin release in the supernatant [1]: no significant effect
- effect on SS1/2 (printed SSin) ([2]; FIG. 1B): no significant effect
- change of RBC EImax vs control ([2]; p<0.05, FIG. 1A): +4.4%
- effect on free hemoglobin released by RBCs ([3]; 3 mM 2-HPBCD, RBCs from sickle cell disease patients in PBS, p<0.05, FIG. 6A): significantly decreased
- change of free hemoglobin released by RBCs vs control ([3]; 5 mM 2-HPBCD, RBCs from sickle cell anemia patients in PBS, p<0.05, FIG. 5A): −6.4%
- change of free hemoglobin released by RBCs vs control, patients with low basal free hemoglobin removed ([3]; 5 mM 2-HPBCD, SS RBCs with high basal free hemoglobin content in PBS, p<0.01, FIG. 5B): −29.9%
- effect on deformability of SCD RBCs ([4]; 3 mM or 5 mM 2-HPBCD): increased deformability
- change of sickle cell RBCs EImax vs control ([4]; 5 mM 2-HPBCD, 1 h at 37° C, incubated in PBS, p<0.01, FIG. 2A): +12.7%
- change of sickle cell RBC SS1/2 vs control ([4]; 5 mM 2-HPBCD, 1 h at 37° C, incubated in PBS, p<0.5 as printed, FIG. 2B): −8.1%
- effect on SS1/2 in sickle cell RBCs ([4]; 5 mM 2-HPBCD, 1 h at 37° C, incubated in plasma, FIG. 2D): did not significantly change
- change of sickle cell RBC EImax vs control ([4]; 5 mM 2-HPBCD, 1 h at 37° C, incubated in plasma, p<0.01, FIG. 2C): +12.4%
